Source: patent publication US6835720B2, “Compounds having antiviral activity” (Nissin Food Products Co., Ltd., priority 1996, dated 2004)

Experiments:
[1] = system: Herpes simplex II virus (HSVII); test: Plaque reduction assay, Herpes simplex II virus; format: cell-based
Procedure: (§1) Antiviral activity against human Parainfluenza virus, Respiratory syncytial virus (RSV) and Herpes simplex II virus (HSVII) was determined by the plaque reduction assay, while that against Feline immunodeficiency virus (FIV) and Feline leukemia virus (FeLV) by the reverse transcriptase assay and ELISA, respectively.
(§2) Each virus was obtained from ATCC. As host cells, VERO cells were used for Parainfluenza virus, and HEP2 cells for other viruses.
(§3) To fibroblasts growing in a T150 flask were added virus-infected cells, and the cells were incubated until they reached 60-80% infection. Cells were trypsinized, recovered and used as the virus stock. As the cell culture medium was used E-MEM containing 2-5% FBS, 100 U/ml Penicillin, 2.5 μg/ml Aniphotericin and 10 μg/ml Gentamycin.
(§4) Compound related to Example 29 was appropriately diluted to the concentrations of 500, 100, 50, 10 and 5 μg/ml with the culture medium or methyl cellulose. As the reference drug for HSV II was used Acyclovir. […]
(§5) Cells were cultured at 36-38° C. under the 5-7% CO2 atmosphere, and examined for the appearance of plaques under microscope. […] Number of plaques counted in the sample well was compared with that in the virus control well, and the decrease in the number of plaques was used to express the antiviral activity.

[2] = system: human T cells (H9 cell line); test: Cytotoxicity, viable cells counted by the MTT method; format: cell-based
Procedure: (§6) Samples of various concentrations (25 μl) are distributed into a 24-well microplate, immediately added with human T cells (H9 cell line, 1.2×10^5/ml) (1 ml), covered, and incubated at 37° C. for 1 h. Then, AIDS virus (HIV-1, IIIb, 100 TCID 50) (25 μl) is added to each well and thoroughly mixed, covered again, and incubated under the CO2 atmosphere at 37° C. for 3 days. On the fourth day, aliquots (200 μl) of the culture medium from each well are transferred into a fresh microplate. The growth medium (500 μl) is added to each well, and further incubated for 2 days.
(§7) On the 6th day, aliquots (90 μl) of the culture supernatant are withdrawn, and assayed the amount of p24, a constituent of HIV-1, by ELISA method using the anti-p24 antibody to assess the growth of said virus. Also, using the remaining cell culture suspension (100 μl), viable cells are counted by the MTT method. Experimental values are expressed as the ratios (%) to the negative control value (measured using the solvent to dissolve test compounds as the sample) to represent the anti-HIV activity and cytotoxicity. Then, for the unified representation of the anti-HIV activity and cytotoxicity, the concentrations of test compounds at their 50% values are obtained from the activity-concentration curves and the cytotoxicity-concentration, and represented as IC50 and CC50, respectively.

mice = test: Toxicity study, intravenous administration to mice; format: in vivo; details: intravenously administered
Procedure: Compounds were intravenously administered to mice, and LD50s (mg/kg) were determined.

human plasma = test: Anti-coagulation activity in human plasma; details: calcium chloride, 37° C. for 30 min, judged with the naked eye
AIDS virus (HIV-1, IIIb) = format: cell-based; details: HIV-1 IIIb in H9 cells, p24 in culture supernatant by ELISA on the 6th day
Procedure: as §6, §7

[3] = system: Feline leukemia virus (FeLV); test: FeLV antigen ELISA, Feline leukemia virus; format: cell-based
Procedure: as §1
(§8) Each virus was obtained from ATCC. FIV was cultured with CRFK cells in Eagle's balanced salt medium containing 10% FBS, and the supernatant was used as the virus stock. As FeLV was used ATCC VR-717.
(§9) Compound related to Example 29 was diluted with the medium to similar concentrations described above.
(§10) For each single strain of virus, the assay was performed in the following combinations of conditions.
(§11) After CRFL cells were cultured in monolayer in 96-well microplates, the supernatant was discarded. […]
(§12) Using supernatants as the sample from the cell control well, the virus control well and the test well, the reverse transcriptase of FIV or FeLV antigen contained therein were quantitated using assay kits from Amersham LIFESCIENCE and Synbiotics, respectively. Anti-viral activity was expressed as that ratio (%) of the value of the test well to that of the virus control well after both values were subtracted with the value of the cell control well, respectively.

[4] = system: human Parainfluenza virus; test: Plaque reduction assay, Parainfluenza virus; format: cell-based; details: VERO cells
Procedure: as §1, §2, §3, §4, §5

[5] = system: Feline immunodeficiency virus (FIV); test: Reverse transcriptase assay, Feline immunodeficiency virus; format: cell-based; details: CRFK cells
Procedure: as §1, §8, §9, §10, §11, §12

[6] = system: Respiratory syncytial virus (RSV); test: Plaque reduction assay, Respiratory syncytial virus; format: cell-based; details: HEP2 cells
Procedure: as §1, §2, §3, §4, §5

Molecule	CC50 [2] [µM]	LD50 (mice) [mg/kg]	Minimum concentration exhibiting anticoagulant action (human plasma) [µM]	IC50 (AIDS virus (HIV-1, IIIb)) [µM]	further results
Nc1nc2c(ncn2COCCO)c(=O)[nH]1 [Acyclovir, reference compound]					IC50 ([1]; HEp-2, HEP2 cells): 21.6 µM
CCCCCCCCCCCCCCCCCCCCCCOC[C@H](CO[C@]1(C(=O)[O-])C[C@H](OS(=O)(=O)[O-])[C@@H](NC(C)=O)[C@H]([C@H](OS(=O)(=O)[O-])[C@@H](COS(=O)(=O)[O-])OS(=O)(=O)[O-])O1)OCCCCCCCCCCCCCCCCCCCCCC.[Na+].[Na+].[Na+].[Na+].[Na+] [Example 12, 3-O-[Sodium{5-acetamido-3,5-dideoxy-4,7,8,9-tetra-O-(sodiumoxysulfonyl)-D-glycero-α-D-galacto-2-nonulopyranosyl}onate]-1,2-di-O-docosyl-Sn-glycerol]	> 200	2000	900	0.8	
CCCCCCCCCCCCCCCCCCCCCCOCC(COC1(C(=O)[O-])CC(OS(=O)(=O)[O-])C(NC(C)=O)C(C(OS(=O)(=O)[O-])C(COS(=O)(=O)[O-])OS(=O)(=O)[O-])O1)OCCCCCCCCCCCCCCCCCCCCCC.[Na+].[Na+].[Na+].[Na+].[Na+] [Example 13, 3-O-[Sodium{5-acetamido-3,5-dideoxy-4,7,8,9-tetra-O-(sodiumoxysulfonyl)-D-glycero-β-D-galacto-2-nonulopyranosyl}onate]-1,2-di-O-docosyl-Sn-glycerol]	> 200	2000	1200	1.6	
CCCCCCCCCCCCCCCCCCCCCCOCC(C)(COCCCCCCCCCCCCCCCCCCCCCC)COC1(C(=O)[O-])CC(OS(=O)(=O)[O-])C(NC(C)=O)C(C(OS(=O)(=O)[O-])C(COS(=O)(=O)[O-])OS(=O)(=O)[O-])O1.[Na+].[Na+].[Na+].[Na+].[Na+] [Example 29, Sodium[2,2-bis(docosyloxymethyl)propyl 5-acetamido-3,5-dideoxy-4,7,8,9-tetra-O-(sodiumoxysulfonyl)-D-glycero-α-D-galacto-2-nonulopyranosid]onate]	> 20	2000	900	1.6	IC50 [3]: 58.3 µM; IC50 ([1]; HEP2 cells): 45.2 µM; IC50 [4]: 37.6 µM; IC50 [5]: 4.5 µM; IC50 [6]: 5.1 µM
CCCCCCCCCCCCCCCCCCCCCC(=O)OCC(COC1(C(=O)O)CC(OS(=O)(=O)O)C(NC(C)=O)C(C(OS(=O)(=O)O)C(COS(=O)(=O)O)OS(=O)(=O)O)O1)OC(=O)CCCCCCCCCCCCCCCCCCCCC [Example 38, 3-O-[Sodium{5-acetamido-3,5-dideoxy-4,7,8,9-tretra-O-(sodiumoxysulfonyl)-D-glycero-α-D-galacto-2-nonulopyranosyl}onate]-1,2-di-O-docosanoyl-Sn-glycerol]	> 200			2.5	
CCCCCCCCCCCCCCCCCCCCCCOCC(COC1(C(=O)O)CC(OS(=O)(=O)O)C(OS(=O)(=O)O)C(C(OS(=O)(=O)O)C(COS(=O)(=O)O)OS(=O)(=O)O)O1)OCCCCCCCCCCCCCCCCCCCCCC [Example 41, 3-O-[Sodium{3-deoxy-4,5,7,8,9-penta-O-(sodiumoxysulfonyl)-D-glycero-α-D-galacto-2-nonulopyranosyl}onate]-1,2-di-O-docosyl-Sn-glycerol]	> 200			4	
CCCCCCCCCCCCCCCCCCCCCCOCC(CC)(COCCCCCCCCCCCCCCCCCCCCCC)COC1(C(=O)O)CC(OS(=O)(=O)O)C(NC(C)=O)C(C(OS(=O)(=O)O)C(COS(=O)(=O)O)OS(=O)(=O)O)O1 [Example 50, Sodium[2,2-bis(docosyloxymethyl)butyl 5-acetamido-3,5-dideoxy-4,7,8,9-tetra-O-(sodiumoxysulfonyl)-D-glycero-α-D-galacto-2-nonulopyranosid)onate]	> 200			1.1	
Dextran sulfate [reference compound]			0.5		
